# Assay results from patent US7989482B2, “Indoline anti-cancer agents” (Joyant Pharmaceuticals, Inc., priority 2008, dated 2011).
# Like-named read-outs stand apart in the source and are kept apart here.
# Key:
# A2058 cells = assay: Cell viability assay (CELL-TITER-GLO) in A2058 cells; type: cell-based; settings: Homo sapiens, A2058 cells, 48 hour treatment, cell viability, read-out: IC50 (μM) A2058
# Method: (§1) Cell viability assays were run using standard protocols known to those of skill in art. Cells were plated in 96 well plates at the density of 3,000-10,000 cells per well. Twenty four hours later, cells were treated with increasing concentration of test compounds (1 nM to 1 μM). After another 48 hour, cell survival was measured using CELL-TITER-GLO® reagent (Promega) following the protocol provided by the manufacture. The IC50 value was determined as the concentration of test compound that kills 50% of the cell population.
# (§2) Cell viability data generated according to the protocol described in Example 97 was generated for representative compounds in A2058 and U937 cells.
# U937 cells = assay: Cell viability assay (CELL-TITER-GLO) in U937 cells; type: cell-based; settings: Homo sapiens, U937 cells, 48 hour treatment, cell viability, read-out: IC50 (μM) U937
# Method: as §1, §2
Structure (SMILES),"IC50 (A2058 cells; A2058, 48 h) [µM]","IC50 (U937 cells; U-937, 48 h) [µM]",IC50 (A2058 cells) [µM],IC50 (U937 cells; U-937) [µM]
CC(C)[C@H](O)C(=O)N[C@H]1Cc2ccc3c(c2)C2(C4=C(C(=O)N5CCCC5c5ccccc5)N=C(O4)[C@H](C(C)C)NC1=O)c1ccccc1N[C@H]2O3 (stereo partly drawn) [Example 21],> 1,> 1,,
CC(C)[C@H](O)C(=O)N[C@H]1Cc2ccc3c(c2)C2(C4=C(C(=O)NC5CCCCC5)N=C(O4)[C@H](C(C)C)NC1=O)c1ccccc1N[C@H]2O3 (stereo partly drawn) [Example 22],> 1,> 1,,
CNC(=O)c1nc2oc1C13c4ccccc4N[C@H]1Oc1ccc(cc13)C[C@H](NC(=O)[C@@H](O)C(C)C)C(=O)N[C@H]2C(C)C (stereo partly drawn) [Example 23],> 1,> 1,,
CC(C)[C@H](O)C(=O)N[C@H]1Cc2ccc3c(c2)C2(C4=C(C(=O)NC(C)(C)C)N=C(O4)[C@H](C(C)C)NC1=O)c1ccccc1N[C@H]2O3 (stereo partly drawn) [Example 24],> 1,> 1,,
CCN(CC)C(=O)c1nc2oc1C13c4ccccc4N[C@H]1Oc1ccc(cc13)C[C@H](NC(=O)[C@@H](O)C(C)C)C(=O)N[C@H]2C(C)C (stereo partly drawn) [Example 25],> 1,> 1,,
CC(C)[C@H](O)C(=O)N[C@H]1Cc2ccc3c(c2)C2(C4=C(C(=O)N5CCc6ccccc65)N=C(O4)[C@H](C(C)C)NC1=O)c1ccccc1N[C@H]2O3 (stereo partly drawn) [Example 26],> 1,> 1,,
CC(C)[C@H](O)C(=O)N[C@H]1Cc2ccc3c(c2)C2(C4=C(C(=O)N5CCN=C5c5ccccc5)N=C(O4)[C@H](C(C)C)NC1=O)c1ccccc1N[C@H]2O3 (stereo partly drawn) [Example 27],> 1,> 1,,
CC(C)[C@H](O)C(=O)N[C@H]1Cc2ccc3c(c2)C2(C4=C(C(=O)NC5CCc6ccccc65)N=C(O4)[C@H](C(C)C)NC1=O)c1ccccc1N[C@H]2O3 (stereo partly drawn) [Example 28],> 1,> 1,,
CC(C)[C@H](O)C(=O)N[C@H]1Cc2ccc3c(c2)C2(C4=C(C(=O)NCCO)N=C(O4)[C@H](C(C)C)NC1=O)c1ccccc1N[C@H]2O3 (stereo partly drawn) [Example 29],> 1,> 1,,
COC(=O)[C@H](CO)NC(=O)c1nc2oc1C13c4ccccc4N[C@H]1Oc1ccc(cc13)C[C@H](NC(=O)[C@@H](O)C(C)C)C(=O)N[C@H]2C(C)C (stereo partly drawn) [Example 30],> 1,> 1,,
CC(C)[C@H](O)C(=O)N[C@H]1Cc2ccc3c(c2)[C@]2(C4=C(C(N)=O)N=C(O4)[C@H](C(C)C)NC1=O)c1ccccc1NC2O3 (stereo partly drawn) [Example 31],> 1,> 1,,
CC(C)[C@H](O)C(=O)N[C@H]1Cc2ccc3c(c2)C2(C4=C(C(=O)NCC(=O)c5c[nH]c6c(O)cccc56)N=C(O4)[C@H](C(C)C)NC1=O)c1ccccc1N[C@H]2O3 (stereo partly drawn) [Example 32],> 1,> 1,,
CC(C)[C@H](O)C(=O)N[C@H]1Cc2ccc3c(c2)C2(C4=C(C(=O)NCC(=O)c5c[nH]c6c(O)cccc56)N=C(O4)[C@H](C(C)C)NC1=O)c1cccc(Br)c1N[C@H]2O3 (stereo partly drawn) [Example 33],> 1,> 1,,
CC(C)[C@H](O)C(=O)N[C@H]1Cc2ccc3c(c2)C2(C4=C(C(=O)NCC(=O)c5c[nH]c6ccccc56)N=C(O4)[C@H](C(C)C)NC1=O)c1ccccc1N[C@H]2O3 (stereo partly drawn) [Example 34],> 1,> 1,,
COC(=O)c1nc2oc1C13c4ccccc4N[C@H]1Oc1ccc(cc13)C[C@H](NC(=O)[C@@H]1CCCN1)C(=O)NC2C(C)C (stereo partly drawn) [Example 35],> 1,> 1,,
COC(=O)c1nc2oc1C13c4ccccc4N[C@H]1Oc1ccc(cc13)C[C@H](NC(=O)[C@@H]1C[C@@H](O)CN1)C(=O)NC2C(C)C (stereo partly drawn) [Example 36],,,> 1,> 1
COC(=O)c1nc2oc1C13c4cc(ccc4O[C@@H]1N(S(C)(=O)=O)c1ccccc13)C[C@H](NC(=O)[C@@H](O)C(C)C)C(=O)N[C@H]2C(C)C (stereo partly drawn) [Example 37],> 1,> 1,,
COC(=O)c1nc2oc1C13c4cc(ccc4O[C@@H]1Nc1c(-c4ccccc4)cccc13)C[C@H](NC(=O)[C@@H](O)C(C)C)C(=O)N[C@H]2C(C)C (stereo partly drawn) [Example 38],> 1,> 1,,
